Patent publication US7358237B2, “Inducible nitric oxide synthase binds, S-nitrosylates, and activates cyclooxygenase-2” (The Johns Hopkins University, priority 2005, dated 2008)
Blank lines part the entries; values can stand above or below the molecule they belong to.

Key:
COX2 [1] = biological target: T1, COX2 (Homo sapiens, UniProt P35354); experiment: S-nitrosylation of COX2 (biotin switch assay) in HEK293T cells transfected with COX2-myc; type: cell-based; conditions: for S-nitrosylation of COX2 by NO donors and H2O2: HEK293T cells transfected with COX2-myc, biotin switch, GSNO 100 μM, SNP 100 μM, Spermine-NO 100 μM, DETA-NO 500 μM
T1 construct: myc; expressed in transfected cells; host or cells: HEK293T
T1 sequence (P35354 18-604): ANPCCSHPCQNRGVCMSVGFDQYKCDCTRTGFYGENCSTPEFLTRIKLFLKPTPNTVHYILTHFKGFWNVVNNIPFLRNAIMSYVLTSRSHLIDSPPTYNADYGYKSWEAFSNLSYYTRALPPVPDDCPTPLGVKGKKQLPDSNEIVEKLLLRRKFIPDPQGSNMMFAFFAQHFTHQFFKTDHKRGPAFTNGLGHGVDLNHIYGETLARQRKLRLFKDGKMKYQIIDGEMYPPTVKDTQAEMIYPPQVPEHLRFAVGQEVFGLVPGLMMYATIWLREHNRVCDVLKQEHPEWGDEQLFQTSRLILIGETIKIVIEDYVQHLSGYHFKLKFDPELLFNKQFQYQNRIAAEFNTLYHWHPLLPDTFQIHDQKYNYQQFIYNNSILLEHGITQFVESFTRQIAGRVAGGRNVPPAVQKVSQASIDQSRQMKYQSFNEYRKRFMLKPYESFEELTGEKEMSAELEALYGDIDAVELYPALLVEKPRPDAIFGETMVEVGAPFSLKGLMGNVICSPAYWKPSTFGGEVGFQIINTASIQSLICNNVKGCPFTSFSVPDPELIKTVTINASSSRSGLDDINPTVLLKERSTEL
Description: Plasmid Constructions. Full length human cyclooxygenase2-encoding gene (gene bank sequence NM_000963) was purchased from ATCC in pCMV•SPORT6 vector. The sequence was amplified by PCR using primers harboring Sal1/Not1 restriction sites and cloned into the pCMV-Myc vector (Clontech, Palo Alto, Calif.). The murine inducible nitric oxide synthase (accession number NM_010927) cloned into the pcDNA3.1+vector (Invitrogen, Carlsbad, Calif.).
(§1) S-nitrosylation assay. Cells were homogenized by 26G needle in HEN ([…] Hepes-NaOH pH 7.7, 1 mM EDTA, 0.1 mM Neocuproine) buffer and then centrifuged at 1000 g for 10 min at 4° C. Cells lysates (240 μg) was added 4 vol of blocking buffer (9 vol of HEN buffer plus 1 vol 25% SDS, adjusted to 20 mM MMTS with a 2 M stock prepared in dimethylformamide (DMF)) at 50° C. for 20 min with frequent vortexing. The MMTS was then removed by desalting three times with the MicroBioSpin6 column (Bio-Rad, Hercules, Calif.) pre-equilibrated in HEN buffer. To the eluate was added biotin-HPDP prepared fresh as a 4 mM stock in DMSO from a 50 mM stock suspension in DMF. Sodium ascorbate was added to a final concentration of 1 mM. After incubation for 1 h at 25° C., biotinylated proteins were precipitated by streptavidin-agarose beads. The streptavidin-agarose was then pelleted and washed 5 times using HENS buffer. The biotinylated proteins were eluted by SDS-PAGE sample buffer and subjected to Western-blot analysis.

RAW264.7 cells [2] = experiment: PGE2 formation in RAW264.7 cells in response to LPS/IFNγ (PGE2 ELISA); type: cell-based, murine; conditions: for PGE2 formation in response to LPS/IFNγ: 1400W various concentrations overnight, L-NAME 500 μM, D-NAME 500 μM
Procedure: Measurement of PGE2. Cells were washed with worm PBS (×2) and incubated in the phenol free Dulbecco's modified Eagle's medium supplemented with 20 μM arachidonic acid and 3% albumin for 20 min. Media was collected and PGE2 production was measured with a PGE2 ELISA kit from Assay Design (Ann Arbor, Mich.) according to the manufacturer's instructions.

iNOS and COX2 binding = biological target: T2, iNOS and COX2 binding (Mus musculus, UniProt P29477+Q05769); experiment: Co-immunoprecipitation of iNOS and COX2 in LPS/IFNγ-induced RAW264.7 cells; type: cell-based, murine
T2 construct: endogenous in cells; host or cells: RAW264.7 murine macrophages induced with LPS/IFNγ

COX2 [3] = experiment: S-nitrosylation of COX2 in RAW264.7 cells treated with LPS/IFNγ (biotin switch and fluorometric detection); type: cell-based, murine; conditions: 1400W 100 μM, fragment transfected
Procedure: as §1
Fluorometric detection of S-nitrosothiols. The methods were modified according to Cook et al.(2) RAW264.7 cells were treated with LPS/IFNγ for overnight and COX2 was immunoprecipitated by donkey anti-rat COX2 antibodies. After that the samples were reacted with 100 μM 2,3-diaminonaphthalene (DAN) in the presence of 100 μM of HgCl2 and incubated in darkness for 30 min at room temperature. The generated fluorescent compound 2,3-napththyltrazole (NAT) was then measured at an excitation wavelength of 375 nm and an emission wavelength of 450 nm.

COX2 [4] = biological target: T1, COX2; experiment: COX2 enzyme activity in cell lysate of COX2-myc transfected HEK293T cells; type: biochemical
Procedure: COX2 enzymatic assay. […] COX2 enzymatic activity was measured with a COX assay kit (Cayman Biochemical Inc, Ann Arbor, Mich.) according to the manufacturer's instructions.
To determine whether S-nitrosylation of COX2 alters enzyme activity, we examined COX2 enzyme activity in HEK293T cells transfected with COX2-myc.

RAW264.7 cells [5] = experiment: Confocal immunofluorescence of endogenous PGE2 in RAW264.7 cells transfected with COX2-myc fragments; type: cell-based, murine; conditions: RAW264.7 cells activated by LPS/IFNγ
Procedure: Immunohistochemistry. RAW264.7 cells were transfected with deletion constructs of COX2. Cells were fixed in 4% paraformaldehyde in PBS for 5 min, permeablized in 0.1% Triton X-100 for 10 s, and then rinsed twice in PBS. Coverslips were then blocked in 10% goat serum at room temperature for 1 h and incubated with PGE2 (Cayman Biochemical Inc, Ann Arbor, Mich.) and myc antibodies for 24 hr at 4° C. Rhodamine or fluorescein-conjugated secondary antibodies (Jackson Immunochemicals, West Grove, Pa.) were then added at 10 μg/ml for 1 hr at room temperature as indicated. Coverslips were mounted in ProLong (Molecular Probes, Eugene, Oreg.). Confocal microscopy, in which the immunofluorescent staining is superimposed on phase contrast images, employed a Noran OZ (Noran Instruments, Middleton, Wis.) confocal laser-scanning system, fitted to an Olympus IX-50 fluorescence microscope.

Molecule: OO [H2O2]
S-nitrosylation of COX2 by NO donors and H2O2 (COX2 [1]): does not elicit S-nitrosylation

Molecule: COC(=O)[C@@H](N)CCCNC(=N)N[N+](=O)[O-] [L-NAME, nitro-argininemethylester]
PGE2 formation in response to LPS/IFNγ (RAW264.7 cells [2]; RAW264.7 cells): inhibition of PGE2 formation

Molecule: N[C@@H](CCC(=O)N[C@@H](CSN=O)C(=O)NCC(=O)O)C(=O)O [GSNO, nitrosoglutathione]
S-nitrosylation of COX2 by NO donors and H2O2 (COX2 [1]): elicit S-nitrosylation

S-nitrosylation of COX2 by NO donors and H2O2 (COX2 [1]): elicit S-nitrosylation
Molecule: NCCCNCCCCN(CCCN)/[N+]([O-])=N/O [spermine-NO]

Molecule: COC(=O)[C@H](N)CCCN=C(N)N[N+](=O)[O-] [D-NAME]
PGE2 formation in response to LPS/IFNγ (RAW264.7 cells [2]; RAW264.7 cells): not

Co-precipitation of iNOS and COX2 (iNOS and COX2 binding; RAW264.7 cells induced by LPS/IFNγ, inhibitor 100 μM, immunoprecipitation with anti-iNOS or anti-COX2 antibodies): unaffected
Molecule: CC(=N)NCc1cccc(CN)c1 [1400W]
S-nitrosylation of COX2 (COX2 [3]): prevented | PGE2 formation in response to LPS/IFNγ (RAW264.7 cells [2]; RAW264.7 cells): inhibited

S-nitrosylation of COX2 by NO donors and H2O2 (COX2 [1]): elicit S-nitrosylation
Molecule: NCCN(CCN)/[N+]([O-])=N/O [DETA-NONOate]

Molecule: N=C(N)NCCC[C@H](N)C(=O)O [L-arginine]
Effects of L-NAME on PGE2 formation (RAW264.7 cells [2]; RAW264.7 cells, LPS/IFNγ, L-NAME 500 μM + L-Arg 1 mM): reversed

S-nitrosylation of COX2-myc in the presence of SNP (COX2 [1]; SNP 200 μM, ASC 500 μM): reversed | Increase of COX2 activity by SNP (COX2 [4]; SNP 200 μM plus ascorbate 500 μM): prevents the increase | COX2 activity in preparations not treated by SNP (COX2 [4]; ascorbate 500 μM, no SNP): fails to affect
Molecule: O=C1O[C@H]([C@@H](O)CO)C(O)=C1O [ascorbic acid]

Molecule: hemoglobin: sequesters freely diffusible NO
S-nitrosylation of COX2 (COX2 [3]): fails to alter

B1: 1-483: myc-tagged fragment of COX2 comprising amino acids 1-483, which does not bind iNOS (protein)
chain: ANPCCSHPCQNRGVCMSVGFDQYKCDCTRTGFYGENCSTPEFLTRIKLFLKPTPNTVHYILTHFKGFWNVVNNIPFLRNAIMSYVLTSRSHLIDSPPTYNADYGYKSWEAFSNLSYYTRALPPVPDDCPTPLGVKGKKQLPDSNEIVEKLLLRRKFIPDPQGSNMMFAFFAQHFTHQFFKTDHKRGPAFTNGLGHGVDLNHIYGETLARQRKLRLFKDGKMKYQIIDGEMYPPTVKDTQAEMIYPPQVPEHLRFAVGQEVFGLVPGLMMYATIWLREHNRVCDVLKQEHPEWGDEQLFQTSRLILIGETIKIVIEDYVQHLSGYHFKLKFDPELLFNKQFQYQNRIAAEFNTLYHWHPLLPDTFQIHDQKYNYQQFIYNNSILLEHGITQFVESFTRQIAGRVAGGRNVPPAVQKVSQASIDQSRQMKYQSFNEYRKRFMLKPYESFEELTGEKEMSAELEALYGD
Influence on PGE2 formation (RAW264.7 cells [2]; fragment transfected into RAW264.7 cells, LPS/IFNγ): fails to influence | PGE2 expression level in transfected cell compared to non-transfected cell (immunofluorescent staining) (RAW264.7 cells [5]): does not show a reduction

Co-precipitation of iNOS and COX2 (iNOS and COX2 binding; fragment transfected into RAW264.7 cells, LPS/IFNγ, immunoprecipitation with anti-iNOS): abolishes
B2: 484-604: dominant-negative myc-tagged fragment of COX2, amino acids 484-604, which binds iNOS (protein)
chain: IDAVELYPALLVEKPRPDAIFGETMVEVGAPFSLKGLMGNVICSPAYWKPSTFGGEVGFQIINTASIQSLICNNVKGCPFTSFSVPDPELIKTVTINASSSRSGLDDINPTVLLKERSTEL
S-nitrosylation of COX2 (COX2 [3]): decreases | Reduction of PGE2 formation (RAW264.7 cells [2]; dominant-negative fragment transfected into RAW264.7 cells, LPS/IFNγ): more than 50% | PGE2 expression level in transfected cell compared to non-transfected cell (immunofluorescent staining) (RAW264.7 cells [5]): reduction
